For 21 compounds, IC50 results are on record in US20250145585A1, “HETEROCYCLIC INHIBITORS OF IGF-1R FOR TREATMENT OF DISEASE” (HORIZON THERAPEUTICS IRELAND DAC, priority 2023, published 2025).

As usually defined, the IC50 is the concentration needed to halve the response being measured.

The experiment addresses T1, IGF-1R (Homo sapiens, UniProt P08069).
T1 construct: expressed in transfected cells
As to the kind of experiment: Example B-1: IGF-1R Assay (PC3 cells stimulated with IGF1, AlphaLISA on cell lysates). Type of experiment: cell-based. The settings on record: compound two hours, IGF1 200 ng/mL for 30 min, read-out: IC50, Biological Activity against IGF-1R (Table B1). An outline of the steps: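 PC3 cells serum-starved 2 h, treated 2 h with 3-fold serially diluted compound, then stimulated 30 min with IGF1 (200 ng/mL final). Lysates analysed by AlphaLISA; % inhibition calculated relative to vehicle and EC80 controls, IC50 derived.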
(In general: Bead proximity is the source of the signal in Alpha formats.)

T1 sequence (P08069 31-1367): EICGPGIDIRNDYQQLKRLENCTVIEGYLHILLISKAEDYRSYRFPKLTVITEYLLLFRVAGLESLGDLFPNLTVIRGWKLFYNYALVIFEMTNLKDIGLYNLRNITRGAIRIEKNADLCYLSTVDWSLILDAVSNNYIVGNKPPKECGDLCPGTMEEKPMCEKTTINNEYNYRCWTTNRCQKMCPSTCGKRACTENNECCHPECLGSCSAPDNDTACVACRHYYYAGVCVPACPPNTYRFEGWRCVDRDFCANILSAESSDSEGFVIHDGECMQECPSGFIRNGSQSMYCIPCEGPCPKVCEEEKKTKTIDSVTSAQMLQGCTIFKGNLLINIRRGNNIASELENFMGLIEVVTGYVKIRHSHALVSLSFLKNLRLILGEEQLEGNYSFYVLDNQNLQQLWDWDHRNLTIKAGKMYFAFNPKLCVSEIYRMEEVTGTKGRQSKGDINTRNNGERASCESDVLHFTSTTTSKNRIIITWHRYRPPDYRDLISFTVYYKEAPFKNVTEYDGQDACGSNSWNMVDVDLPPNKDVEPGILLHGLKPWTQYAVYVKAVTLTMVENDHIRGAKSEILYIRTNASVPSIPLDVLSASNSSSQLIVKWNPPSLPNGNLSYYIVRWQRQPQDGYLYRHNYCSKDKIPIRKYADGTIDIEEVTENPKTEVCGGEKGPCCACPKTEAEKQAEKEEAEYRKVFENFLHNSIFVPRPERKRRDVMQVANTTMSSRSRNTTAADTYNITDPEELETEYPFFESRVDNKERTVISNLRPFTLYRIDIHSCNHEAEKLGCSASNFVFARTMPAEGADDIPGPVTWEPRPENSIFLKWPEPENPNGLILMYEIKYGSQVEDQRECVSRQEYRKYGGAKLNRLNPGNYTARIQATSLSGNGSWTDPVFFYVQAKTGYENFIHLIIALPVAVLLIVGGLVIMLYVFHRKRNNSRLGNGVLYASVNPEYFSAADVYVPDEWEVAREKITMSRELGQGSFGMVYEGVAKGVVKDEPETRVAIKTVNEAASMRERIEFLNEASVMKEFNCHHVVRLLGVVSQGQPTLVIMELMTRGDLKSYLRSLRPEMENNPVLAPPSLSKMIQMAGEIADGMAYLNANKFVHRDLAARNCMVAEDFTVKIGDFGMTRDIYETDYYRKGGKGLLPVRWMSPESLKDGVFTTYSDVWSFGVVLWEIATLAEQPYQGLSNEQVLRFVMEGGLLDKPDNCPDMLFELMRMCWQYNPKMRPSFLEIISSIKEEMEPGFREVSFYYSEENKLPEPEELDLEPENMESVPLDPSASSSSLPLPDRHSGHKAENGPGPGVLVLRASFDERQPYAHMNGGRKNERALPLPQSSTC

For the compound `CC1(C)C(=O)N(c2ccc(SC(F)(F)F)cc2)C(=O)N1Cc1ccnc(NC2COC2)c1` [Compound 314, 5,5-dimethyl-1-((2-(oxetan-3-ylamino)pyridin-4-yl)methyl)-3-(4-((trifluoromethyl)thio)phenyl) imidazolidine-2,4-dione], the IC50 is greater than 10000 nM.

For `CC1(C)C(=O)N(c2ccc(SC(F)(F)F)cc2)C(=O)N1Cc1ccnc(NCC(F)F)c1` [Compound 315, 1-((2-((2,2-difluoroethyl)amino)pyridin-4-yl)methyl)-5,5-dimethyl-3-(4-((trifluoromethyl)thio)phenyl) imidazolidine-2,4-dione], the IC50 is no more than 500 nM.

Take `CN1CC(Nc2cc(CN3C(=O)N(c4ccc(C(C)(C)C)cc4)C(=O)C3(C)C)ccn2)C1` [Compound 345, 3-(4-(tert-butyl)phenyl)-5,5-dimethyl-1-((2-((1-methylazetidin-3-yl)amino)pyridin-4-yl)methyl)imidazolidine-2,4-dione]: the IC50 is 500 to 2000 nM.

As for `CC(C)(C)c1ccc(N2C(=O)N(Cc3ccnc(-c4ccccc4)c3)C(C)(C)C2=O)cc1` [Compound 346, 3-(4-(tert-butyl)phenyl)-5,5-dimethyl-1-((2-phenylpyridin-4-yl)methyl)imidazoline-2,4-dione], the IC50 lay in the range of 500 to 2000 nM.

With `CC(C)(C)c1ccc(N2C(=O)N(Cc3ccnc(-c4ccn[nH]4)c3)C(C)(C)C2=O)cc1` [Compound 347, 1-((2-(1H-pyrazol-5-yl)pyridin-4-yl)methyl)-3-(4-(tert-butyl)phenyl)-5,5-dimethylimidazoline-2,4-dione], the IC50 is no more than 500 nM.

For `CN(C)CC(=O)Nc1cc(CN2C(=O)N(c3ccc(SC(F)(F)F)cc3)C(=O)C2(C)C)ccn1` [Compound 348, N-(4-((5,5-dimethyl-2,4-dioxo-3-(4-((trifluoromethyl)thio)phenyl)imidazolidin-1-yl)methyl)pyridin-2-yl)-2-(dimethylamino)acetamide], the IC50 was no more than 500 nM.

With `CN1CC(Oc2ccc(Nc3cc(CN4C(=O)N(c5ccc(SC(F)(F)F)cc5)C(=O)C4(C)C)ccn3)cc2)C1` [Compound 349, 5,5-dimethyl-1-((2-((4-((1-methylazetidin-3-yl)oxy)phenyl)amino)pyridin-4-yl)methyl)-3-(4-((trifluoromethyl)thio)phenyl) imidazolidine-2,4-dione], the IC50 was no more than 500 nM.

As to `Cn1cc(NC(=O)Nc2cc(CN3C(=O)N(c4ccc(SC(F)(F)F)cc4)C(=O)C3(C)C)ccn2)cn1` [Compound 350, 1-(4-((5,5-dimethyl-2,4-dioxo-3-(4-((trifluoromethyl)thio)phenyl)imidazolidin-1-yl)methyl)pyridin-2-yl)-3-(1-methyl-1H-pyrazol-4-yl)urea], the IC50 was no more than 500 nM.

Turning to `COc1cc(NC(=O)Nc2cc(CN3C(=O)N(c4ccc(SC(F)(F)F)cc4)C(=O)C3(C)C)ccn2)ccc1O[C@H]1C[C@@H](N(C)C)C1` [Compound 351, 1-(4-((5,5-dimethyl-2,4-dioxo-3-(4-((trifluoromethyl)thio)phenyl)imidazolidin-1-yl)methyl)pyridin-2-yl)-3-(4-((1s,3s)-3-(dimethylamino)cyclobutoxy)-3-methoxyphenyl)urea], the IC50 is no more than 500 nM.

As to `CC1(C)C(=O)N(c2ccc(SC(F)(F)F)cc2)C(=O)N1Cc1ccnc(Nc2ncc[nH]2)c1` [Compound 352, 1-((2-((1H-imidazol-2-yl)amino)pyridin-4-yl)methyl)-5,5-dimethyl-3-(4-((trifluoromethyl)thio)phenyl) imidazolidine-2,4-dione], the IC50 was no more than 500 nM.

Consider `Cc1ccncc1Nc1cc(CN2C(=O)N(c3ccc(SC(F)(F)F)cc3)C(=O)C2(C)C)ccn1` [Compound 358, 5,5-dimethyl-1-((2-((4-methylpyridin-3-yl)amino)pyridin-4-yl)methyl)-3-(4-((trifluoromethyl)thio)phenyl) imidazolidine-2,4-dione], for which the IC50 was no more than 500 nM.

`CN(C)C(=O)c1cncc(Nc2cc(CN3C(=O)N(c4ccc(SC(F)(F)F)cc4)C(=O)C3(C)C)ccn2)c1` [Compound 359, 5-((4-((5,5-dimethyl-2,4-dioxo-3-(4-((trifluoromethyl)thio)phenyl)imidazolidin-1-yl)methyl)pyridin-2-yl)amino)-N,N-dimethylnicotinamide]: the IC50 was no more than 500 nM.

As to `CC1(C)C(=O)N(c2ccc(SC(F)(F)F)cc2)C(=O)N1Cc1ccnc(NC(=O)c2cccnc2)c1` [Compound 360, N-(4-((5,5-dimethyl-2,4-dioxo-3-(4-((trifluoromethyl)thio)phenyl)imidazolidin-1-yl)methyl)pyridin-2-yl)nicotinamide], the concentration for half-maximal inhibition (IC50) was no more than 500 nM.

On to `CNC(=O)Nc1cc(CN2C(=O)N(c3ccc(SC(F)(F)F)cc3)C(=O)C2(C)C)ccn1` [Compound 361, 1-(4-((5,5-dimethyl-2,4-dioxo-3-(4-((trifluoromethyl)thio)phenyl)imidazolidin-1-yl)methyl)pyridin-2-yl)-3-methylurea], for which the IC50 is no more than 500 nM.

Regarding `CC1(C)C(=O)N(c2ccc(SC(F)(F)F)cc2)C(=O)N1Cc1ccnc(Nc2cccc(O)n2)c1` [Compound 362, 1-((2-((6-hydroxypyridin-2-yl)amino)pyridin-4-yl)methyl)-5,5-dimethyl-3-(4-((trifluoromethyl)thio)phenyl) imidazolidine-2,4-dione], the IC50 was 500 to 2000 nM.

As for `COc1ccc(NC(=O)Nc2cc(CN3C(=O)N(c4ccc(SC(F)(F)F)cc4)C(=O)C3(C)C)ccn2)cc1` [Compound 363, 1-(4-((5,5-dimethyl-2,4-dioxo-3-(4-((trifluoromethyl)thio)phenyl)imidazolidin-1-yl)methyl)pyridin-2-yl)-3-(4-methoxyphenyl)urea], the IC50 is no more than 500 nM.

Take `COc1cccc(NC(=O)Nc2cc(CN3C(=O)N(c4ccc(SC(F)(F)F)cc4)C(=O)C3(C)C)ccn2)c1` [Compound 364, 1-(4-((5,5-dimethyl-2,4-dioxo-3-(4-((trifluoromethyl)thio)phenyl)imidazolidin-1-yl)methyl)pyridin-2-yl)-3-(3-methoxyphenyl)urea]: the IC50 was no more than 500 nM.

Regarding `CC(=O)Nc1cc(CN2C(=O)N(c3ccc(SC(F)(F)F)cc3)C(=O)C2(C)C)ncn1` [Compound 365, N-(6-((5,5-dimethyl-2,4-dioxo-3-(4-((trifluoromethyl)thio)phenyl)imidazolidin-1-yl)methyl)pyrimidin-4-yl)acetamide], the IC50 was no more than 500 nM.

Consider `Cc1ccccc1NC(=O)Nc1cc(CN2C(=O)N(c3ccc(SC(F)(F)F)cc3)C(=O)C2(C)C)ccn1` [Compound 366, 1-(4-((5,5-dimethyl-2,4-dioxo-3-(4-((trifluoromethyl)thio)phenyl)imidazolidin-1-yl)methyl)pyridin-2-yl)-3-(o-tolyl)urea], for which the IC50 is no more than 500 nM.

As to `CC1(C)C(=O)N(c2ccc(SC(F)(F)F)cc2)C(=O)N1Cc1cccc(Nc2c(Nc3ccccc3)c(=O)c2=O)n1` [Compound 367, 1-((6-((3,4-dioxo-2-(phenylamino)cyclobut-1-en-1-yl)amino)pyridin-2-yl)methyl)-5,5-dimethyl-3-(4-((trifluoromethyl)thio)phenyl) imidazolidine-2,4-dione], the half-maximal inhibitory concentration (IC50) was 500 to 2000 nM.

For `CC1(C)C(=O)N(c2ccc(SC(F)(F)F)cc2)C(=O)N1Cc1ccnc(NC(=O)Nc2ccc(F)cc2)c1` [Compound 368, 1-(4-((5,5-dimethyl-2,4-dioxo-3-(4-((trifluoromethyl)thio)phenyl)imidazolidin-1-yl)methyl)pyridin-2-yl)-3-(4-fluorophenyl)urea], the IC50 was no more than 500 nM.
